The record followed here is ChEMBL document CHEMBL1139829, “2-Benzenesulfonyl-8a-benzyl-hexahydro-2H-isoquinolin-6-ones as selective glucocorticoid receptor antagonists” (Bioorg Med Chem Lett, 2007).

The target of data set [1] is T1, Glucocorticoid receptor (Homo sapiens, UniProt P04150).
T1 sequence (P04150 whole entry): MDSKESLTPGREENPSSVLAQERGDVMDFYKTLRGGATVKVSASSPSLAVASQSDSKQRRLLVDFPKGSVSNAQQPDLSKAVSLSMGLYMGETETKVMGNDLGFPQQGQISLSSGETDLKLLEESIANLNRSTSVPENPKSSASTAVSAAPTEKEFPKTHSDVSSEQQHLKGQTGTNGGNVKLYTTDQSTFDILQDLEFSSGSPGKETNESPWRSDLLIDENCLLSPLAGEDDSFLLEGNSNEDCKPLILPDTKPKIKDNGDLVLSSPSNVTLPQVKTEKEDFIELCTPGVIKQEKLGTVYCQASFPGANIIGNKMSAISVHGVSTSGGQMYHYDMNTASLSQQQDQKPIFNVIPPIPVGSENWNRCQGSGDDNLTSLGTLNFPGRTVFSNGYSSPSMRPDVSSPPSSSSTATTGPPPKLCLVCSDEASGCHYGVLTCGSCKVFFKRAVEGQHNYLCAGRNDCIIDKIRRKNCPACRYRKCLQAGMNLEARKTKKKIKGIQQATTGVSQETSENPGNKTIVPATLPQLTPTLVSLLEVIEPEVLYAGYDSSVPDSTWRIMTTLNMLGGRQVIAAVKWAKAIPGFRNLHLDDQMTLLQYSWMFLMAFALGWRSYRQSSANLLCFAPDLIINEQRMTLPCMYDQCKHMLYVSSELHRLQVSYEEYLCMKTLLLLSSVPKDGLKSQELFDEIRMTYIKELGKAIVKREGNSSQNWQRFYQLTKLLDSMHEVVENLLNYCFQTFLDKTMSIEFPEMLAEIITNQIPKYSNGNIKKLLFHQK
The data set can be described thus: Displacement of [3H]dexamethasone from human glucocorticoid receptor expressed in recombinant baculovirus. Background: In a radioligand displacement assay an active substance lowers the binding of a labelled ligand.

The target of data set [2] is T1, Glucocorticoid receptor. In words: Antagonist activity at human glucocorticoid receptor in SW1353 cells assessed as inhibition of dexamethasone-induced luciferase expression by MMTV5 reporter gene assay. The data set is classed as functional, cell-based. A general note: Reporter assays use an easily measured gene product as a stand-in for the process of interest.

The target in data set [3] is T1, Glucocorticoid receptor. The data set can be described thus: Binding affinity to glucocorticoid receptor in SW1353 cells by whole-cell binding assay. In kind it is cell-based.
For another data set, the target named is CYP2C9 (Homo sapiens, UniProt P11712). The data set can be described thus: Inhibition of CYP2C9 at 1 uM. The data set is classed as ADME.
A further data set addresses CYP2C19 (Homo sapiens, UniProt P33261). In words: Inhibition of CYP2C19 at 1 uM. In kind it is ADME.
For a further data set, the target named is CYP2D6 (Homo sapiens, UniProt P10635). In words: Inhibition of CYP2D6 at 1 uM. In kind it is ADME.

Molecules are shown by their SMILES.

Chain of CYP2D6 (P10635 whole entry): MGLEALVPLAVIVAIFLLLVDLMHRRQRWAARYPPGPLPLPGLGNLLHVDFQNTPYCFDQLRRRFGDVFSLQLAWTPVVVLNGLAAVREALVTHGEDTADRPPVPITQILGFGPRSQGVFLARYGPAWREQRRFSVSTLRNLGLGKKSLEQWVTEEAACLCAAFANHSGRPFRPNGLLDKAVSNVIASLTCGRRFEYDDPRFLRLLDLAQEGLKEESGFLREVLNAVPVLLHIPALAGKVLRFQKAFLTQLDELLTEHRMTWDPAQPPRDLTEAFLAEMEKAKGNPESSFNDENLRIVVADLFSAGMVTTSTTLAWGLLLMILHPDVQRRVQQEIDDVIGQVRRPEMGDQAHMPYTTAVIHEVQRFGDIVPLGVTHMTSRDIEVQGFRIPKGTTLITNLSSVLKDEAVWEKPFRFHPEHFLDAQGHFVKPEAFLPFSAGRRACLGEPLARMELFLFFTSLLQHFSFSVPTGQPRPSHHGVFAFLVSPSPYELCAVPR
Chain of CYP2C19 (P33261 whole entry): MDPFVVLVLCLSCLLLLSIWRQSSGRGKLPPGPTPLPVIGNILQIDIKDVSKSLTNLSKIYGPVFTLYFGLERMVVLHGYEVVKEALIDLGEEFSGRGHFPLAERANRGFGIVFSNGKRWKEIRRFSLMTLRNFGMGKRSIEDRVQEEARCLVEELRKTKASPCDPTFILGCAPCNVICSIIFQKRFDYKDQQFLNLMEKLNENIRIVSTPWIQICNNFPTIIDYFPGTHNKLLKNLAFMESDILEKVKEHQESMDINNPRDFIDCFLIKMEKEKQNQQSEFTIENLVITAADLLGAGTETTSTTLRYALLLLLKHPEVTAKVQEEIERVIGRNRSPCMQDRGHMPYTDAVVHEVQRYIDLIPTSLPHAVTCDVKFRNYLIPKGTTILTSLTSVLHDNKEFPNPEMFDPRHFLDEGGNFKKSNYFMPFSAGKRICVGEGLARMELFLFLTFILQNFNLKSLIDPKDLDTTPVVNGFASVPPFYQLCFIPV
Chain of CYP2C9 (P11712 whole entry): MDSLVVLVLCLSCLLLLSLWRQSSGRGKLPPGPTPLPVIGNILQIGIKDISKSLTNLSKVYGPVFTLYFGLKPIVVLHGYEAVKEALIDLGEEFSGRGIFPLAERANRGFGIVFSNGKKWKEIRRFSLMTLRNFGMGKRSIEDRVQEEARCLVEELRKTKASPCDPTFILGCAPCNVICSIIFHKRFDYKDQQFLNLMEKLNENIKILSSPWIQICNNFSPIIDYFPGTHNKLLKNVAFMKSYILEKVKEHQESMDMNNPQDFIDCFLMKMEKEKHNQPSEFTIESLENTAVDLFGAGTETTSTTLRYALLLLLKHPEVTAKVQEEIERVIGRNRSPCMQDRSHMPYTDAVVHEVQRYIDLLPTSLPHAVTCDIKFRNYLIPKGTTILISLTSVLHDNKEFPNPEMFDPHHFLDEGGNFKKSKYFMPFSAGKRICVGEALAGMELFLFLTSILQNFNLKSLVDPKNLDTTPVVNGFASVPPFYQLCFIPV

One may read the Ki as a measure of affinity in units of concentration, obtained from inhibition or displacement. Consider `O=C1C=C2CCN(S(=O)(=O)c3cccc([N+](=O)[O-])c3)CC2(Cc2ccccc2)CC1` (racemic), for which, on Glucocorticoid receptor [1], the Ki is 3000 nM. As for `CC(C)(C)c1ccc(S(=O)(=O)N2CCC3=CC(=O)CCC3(Cc3ccc(N4CCCCC4)cc3)C2)cc1` (racemic), the Ki on Glucocorticoid receptor [1] was 9 nM; at Glucocorticoid receptor [2] it was above 1000 nM.

`COc1ccc(CC23CCC(=O)C=C2CCN(S(=O)(=O)c2ccc(C(C)(C)C)cc2)C3)cc1` (racemic): the Ki turned out to be 6 nM on Glucocorticoid receptor [1] and 230 nM on Glucocorticoid receptor [2]. On to `Cc1ccc(S(=O)(=O)N2CCC3=CC(=O)CCC3(Cc3ccccc3)C2)cc1` (racemic), for which, at Glucocorticoid receptor [1], the Ki is 99 nM.

Take `CC(C)(C)c1ccc(S(=O)(=O)N2CCC3=CC(=O)CCC3(Cc3ccc(NS(C)(=O)=O)cc3)C2)cc1` (racemic): the Ki on Glucocorticoid receptor [1] is 13 nM; on Glucocorticoid receptor [2], above 1000 nM. In the case of `O=C1C=C2CCN(C(=O)Nc3ccccc3)CC2(Cc2ccccc2)CC1` (racemic), the Ki at Glucocorticoid receptor [1] is above 10000 nM. For `COc1ccc(C[C@]23CCC(=O)C=C2CCN(S(=O)(=O)c2ccc(C(C)(C)C)cc2)C3)cc1`, the Ki was 4 nM at Glucocorticoid receptor [1], 352 nM at Glucocorticoid receptor [3] and 200 nM on Glucocorticoid receptor [2]. Regarding `COc1cccc(S(=O)(=O)N2CCC3=CC(=O)CCC3(Cc3ccccc3)C2)c1` (racemic), the Ki on Glucocorticoid receptor [1] is 196 nM. Still for that read-out and setting: under `O=C1C=C2CCN(S(=O)(=O)c3ccc(-c4ccccc4)cc3)CC2(Cc2ccccc2)CC1` (centres undefined) stands 55 nM; under `CC(C)(C)c1ccc(S(=O)(=O)N2CCC3=CC(=O)CCC3(Cc3ccc([N+](=O)[O-])cc3)C2)cc1` (racemic), 45 nM. Regarding `CC#C[C@@]1(O)CC[C@@]2(Cc3ccccc3)c3ccc(O)cc3CC[C@@H]2C1`, the results for the Ki on Glucocorticoid receptor [1], on Glucocorticoid receptor [3] and at Glucocorticoid receptor [2] were 0.6 nM, 5.5 nM and 4 nM, respectively. `CC(=O)Nc1ccc(CC23CCC(=O)C=C2CCN(S(=O)(=O)c2ccc(C(C)(C)C)cc2)C3)cc1` (racemic): the Ki was 56 nM at Glucocorticoid receptor [1] and above 1000 nM on Glucocorticoid receptor [2].

As for `O=C1C=C2CCN(S(=O)(=O)Nc3ccccc3)CC2(Cc2ccccc2)CC1` (racemic), the Ki on Glucocorticoid receptor [1] amounted to 1200 nM. The same measure, in the same setting: the result for `O=C1C=C2CCN(S(=O)(=O)c3cccc(Cl)c3)CC2(Cc2ccccc2)CC1` (racemic) reads 432 nM. On to `CN(C)S(=O)(=O)Nc1ccc(CC23CCC(=O)C=C2CCN(S(=O)(=O)c2ccc(C(C)(C)C)cc2)C3)cc1` (racemic), for which the Ki stood at 13 nM at Glucocorticoid receptor [1] and 323 nM at Glucocorticoid receptor [2]. In the case of `O=C1C=C2CCN(S(=O)(=O)c3ccc(F)cc3)CC2(Cc2ccccc2)CC1` (racemic), on Glucocorticoid receptor [1], the inhibition constant (Ki) is 800 nM. On the same count and under the same terms, under `N#Cc1ccccc1S(=O)(=O)N1CCC2=CC(=O)CCC2(Cc2ccccc2)C1` (racemic) stands 1000 nM. On the same count and under the same terms, under `COc1cccc(CC23CCC(=O)C=C2CCN(S(=O)(=O)c2ccc(C(C)(C)C)cc2)C3)c1` (centres undefined) stands 76 nM; under `COc1ccc(S(=O)(=O)N2CCC3=CC(=O)CCC3(Cc3ccccc3)C2)cc1OC` (racemic), 1300 nM. For `CC(C)(C)c1ccc(S(=O)(=O)N2CCC3=CC(=O)CCC3(Cc3ccc(F)cc3)C2)cc1` (racemic), the Ki at Glucocorticoid receptor [1] is 5 nM; at Glucocorticoid receptor [2] it was above 1000 nM. In the case of `CS(=O)(=O)Nc1ccc(S(=O)(=O)N2CCC3=CC(=O)CCC3(Cc3ccccc3)C2)cc1` (racemic), the Ki on Glucocorticoid receptor [1] was 950 nM. On the same count and under the same terms, under `O=C1C=C2CCN(S(=O)(=O)c3ccccc3)CC2(Cc2ccccc2)CC1` (racemic) stands 225 nM.

Consider `CC(C)(C)c1ccc(S(=O)(=O)N2CCC3=CC(=O)CCC3(Cc3ccc(Br)cc3)C2)cc1` (centres undefined), for which the Ki was determined as 9 nM on Glucocorticoid receptor [1] and 200 nM at Glucocorticoid receptor [2]. Regarding `O=C1C=C2CCN(Cc3ccccc3)CC2(Cc2ccccc2)CC1` (racemic), the Ki on Glucocorticoid receptor [1] was determined as 3700 nM. For `CC(C)(C)c1ccc(S(=O)(=O)N2CCC3=CC(=O)CC[C@]3(Cc3ccccc3)C2)cc1`, the Ki is 4 nM on Glucocorticoid receptor [1] and 200 nM at Glucocorticoid receptor [2]. As to `CCCCC(=O)N1CCC2=CC(=O)CCC2(Cc2ccccc2)C1` (racemic), on Glucocorticoid receptor [1], the Ki was above 10000 nM.

For the compound `O=C1C=C2CCN(C(=O)c3ccccc3)CC2(Cc2ccccc2)CC1` (racemic), the Ki at Glucocorticoid receptor [1] is above 10000 nM.

Consider `O=C1C=C2CCN(Cc3ccncc3)CC2(Cc2ccccc2)CC1` (racemic), for which the Ki at Glucocorticoid receptor [1] was above 10000 nM. On the same count and under the same terms, under `CC(C)(C)c1ccc(S(=O)(=O)N2CCC3=CC(=O)CCC3(Cc3ccc(N)cc3)C2)cc1` (racemic) stands 99 nM.

As for `CCCCS(=O)(=O)N1CCC2=CC(=O)CCC2(Cc2ccccc2)C1` (racemic), the Ki on Glucocorticoid receptor [1] was above 10000 nM. Same read-out and setting: the result for `COc1cccc(OC)c1S(=O)(=O)N1CCC2=CC(=O)CCC2(Cc2ccccc2)C1` (racemic) reads above 10000 nM; that for `O=C1C=C2CCN(S(=O)(=O)c3ccccc3C(F)(F)F)CC2(Cc2ccccc2)CC1` (racemic), 4450 nM. Same read-out and setting: the result for `COc1ccc(N2CCC3=CC(=O)CCC3(Cc3ccccc3)C2)cc1` (centres undefined) reads above 5000 nM; that for `COc1ccc(CN2CCC3=CC(=O)CCC3(Cc3ccccc3)C2)cc1` (racemic), 2250 nM. Same read-out and setting: the result for `CC(C)(C)c1ccc(S(=O)(=O)N2CCC3=CC(=O)CC[C@@]3(Cc3ccccc3)C2)cc1` reads above 10000 nM; that for `O=C1C=C2CCN(S(=O)(=O)c3ccc(N4CCOCC4)cc3)CC2(Cc2ccccc2)CC1` (centres undefined), 64 nM; that for `CS(=O)(=O)Nc1ccccc1S(=O)(=O)N1CCC2=CC(=O)CCC2(Cc2ccccc2)C1` (racemic), 1950 nM.

`O=C1C=C2CCN(S(=O)(=O)c3ccc(Cl)cc3)CC2(Cc2ccccc2)CC1` (racemic): the Ki at Glucocorticoid receptor [1] turned out to be 193 nM.

`CC(C)(C)c1ccc(S(=O)(=O)N2CCC3=CC(=O)CCC3(Cc3ccc(N4CCOCC4)cc3)C2)cc1` (centres undefined): the results for the inhibition constant Ki at Glucocorticoid receptor [1] and at Glucocorticoid receptor [2] were 10 nM and 400 nM, respectively. As for `CN(C)c1ccc(CC23CCC(=O)C=C2CCN(S(=O)(=O)c2ccc(C(C)(C)C)cc2)C3)cc1` (racemic), the values for the Ki at Glucocorticoid receptor [1] and on Glucocorticoid receptor [2] were 15 nM and above 1000 nM, respectively. Regarding `CC(C)(C)c1ccc(S(=O)(=O)N2CCC3=CC(=O)CCC3(Cc3ccccc3)C2)cc1` (racemic), the Ki at Glucocorticoid receptor [1] is 14 nM; on Glucocorticoid receptor [2], above 1000 nM. For the compound `CS(=O)(=O)Nc1cccc(S(=O)(=O)N2CCC3=CC(=O)CCC3(Cc3ccccc3)C2)c1` (centres undefined), the Ki at Glucocorticoid receptor [1] worked out at 2100 nM. Same read-out and setting: the result for `CC(C)(C)c1ccc(S(=O)(=O)N2CCC3=CC(=O)CCC3(Cc3ccc(C#N)cc3)C2)cc1` (racemic) reads 65 nM; that for `COc1ccc(S(=O)(=O)N2CCC3=CC(=O)CCC3(Cc3ccccc3)C2)cc1` (racemic), 216 nM. Usually inhibition stands for the drop in the measured response relative to a control, in per cent. Low readings indicate little suppression, high ones strong suppression. For the compound `CC(C)(C)c1ccc(S(=O)(=O)N2CCC3=CC(=O)CCC3(Cc3ccc(-c4ccncc4)cc3)C2)cc1` (racemic), the Ki at Glucocorticoid receptor [1] is 2 nM; on Glucocorticoid receptor [2] it was 180 nM. The inhibition at 1 µM against CYP2C9 was 76%; on CYP2C19, 61%; on CYP2D6, 44%. Regarding `O=C1C=C2CCN(S(=O)(=O)c3ccc(Oc4ccccc4)cc3)CC2(Cc2ccccc2)CC1` (racemic), on Glucocorticoid receptor [1], the inhibitory constant (Ki) was determined as 163 nM. The same measure, in the same setting: the result for `O=C1C=C2CCN(S(=O)(=O)c3ccc([N+](=O)[O-])cc3)CC2(Cc2ccccc2)CC1` (racemic) reads 1250 nM; that for `CN(C)c1ccc(S(=O)(=O)N2CCC3=CC(=O)CCC3(Cc3ccccc3)C2)cc1` (racemic), 113 nM; that for `CC(=O)Nc1ccc(S(=O)(=O)N2CCC3=CC(=O)CCC3(Cc3ccccc3)C2)cc1` (racemic), 750 nM. Same read-out and setting: under `CS(=O)(=O)c1ccc(S(=O)(=O)N2CCC3=CC(=O)CCC3(Cc3ccccc3)C2)cc1` (racemic) stands 137 nM.
